Results reported in PubChem BioAssay (NCI).
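Assay format: 96-well plates, 48-hour exposure. TGI: total growth inhibition.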

Tests used:
Experiment in all cases: inhibition of tumour cell growth, NCI panel, 48 h
OVCAR-4 ovarian = test system: OVCAR-4 ovarian
KM12 colon = test system: KM12 colon
OVCAR-5 ovarian = test system: OVCAR-5 ovarian
TK-10 renal = test system: TK-10 renal
MDA-MB-435 = test system: MDA-MB-435
T-47D breast = test system: T-47D breast
NCI-H460 lung = test system: NCI-H460 lung
A549 NSCLC = test system: A549 NSCLC
K-562 leukemia = test system: K-562 leukemia
HOP-92 NSCLC = test system: HOP-92 NSCLC
SK-MEL-5 melanoma = test system: SK-MEL-5 melanoma
IGROV1 ovarian = test system: IGROV1 ovarian
RXF 393 renal = test system: RXF 393 renal
HCT-15 colon = test system: HCT-15 colon
EKVX NSCLC = test system: EKVX NSCLC
NCI-H23 lung = test system: NCI-H23 lung
U251 CNS = test system: U251 CNS
MOLT-4 leukemia = test system: MOLT-4 leukemia
HCT-116 colon = test system: HCT-116 colon
OVCAR-3 ovarian = test system: OVCAR-3 ovarian
UACC-62 melanoma = test system: UACC-62 melanoma
SW-620 colon = test system: SW-620 colon
DU-145 prostate = test system: DU-145 prostate
HS 578T breast = test system: HS 578T breast
NCI/ADR-RES ovarian = test system: NCI/ADR-RES ovarian
RPMI-8226 leukemia = test system: RPMI-8226 leukemia
SK-MEL-2 melanoma = test system: SK-MEL-2 melanoma
UACC-257 melanoma = test system: UACC-257 melanoma
SK-OV-3 ovarian = test system: SK-OV-3 ovarian
OVCAR-8 ovarian = test system: OVCAR-8 ovarian
ACHN renal = test system: ACHN renal
HOP-62 NSCLC = test system: HOP-62 NSCLC
MCF7 breast = test system: MCF7 breast
SF-268 CNS = test system: SF-268 CNS
M14 melanoma = test system: M14 melanoma
A498 renal = test system: A498 renal
COLO 205 colon = test system: COLO 205 colon
BT-549 breast = test system: BT-549 breast
SNB-19 CNS = test system: SNB-19 CNS
SN12C renal = test system: SN12C renal
NCI-H226 lung = test system: NCI-H226 lung
786-0 renal = test system: 786-0 renal
HT29 colon = test system: HT29 colon
SK-MEL-28 melanoma = test system: SK-MEL-28 melanoma
SNB-75 CNS = test system: SNB-75 CNS
HCC-2998 colon = test system: HCC-2998 colon
MDA-MB-231 breast = test system: MDA-MB-231 breast
SF-539 CNS = test system: SF-539 CNS
UO-31 renal = test system: UO-31 renal
MDA-N = test system: MDA-N
PC-3 prostate = test system: PC-3 prostate
CCRF-CEM leukemia = test system: CCRF-CEM leukemia
LOX IMVI melanoma = test system: LOX IMVI melanoma
NCI-H522 lung = test system: NCI-H522 lung
CAKI-1 renal = test system: CAKI-1 renal
SR leukemia = test system: SR leukemia
MALME-3M melanoma = test system: MALME-3M melanoma
SF-295 CNS = test system: SF-295 CNS

Measured: TGI

CC(C)(C)[Si](C)(C)OCCCCC1CC2(S(=O)(=O)C3=CC=C=C=C3)ON1CC2S(=O)(=O)c1ccccc1 (centres undefined)
not listed: PC-3 prostate | CCRF-CEM leukemia | LOX IMVI melanoma | NCI-H522 lung | CAKI-1 renal | SR leukemia | MALME-3M melanoma | SF-295 CNS
> 100 µM: all other assays above

O=S(=O)(O)c1cccc2c(N=Nc3c(O)ccc4ccccc34)cccc12
not listed: NCI-H460 lung | MCF7 breast | HCC-2998 colon | SF-539 CNS
> 100 µM: all other assays above
